Assay results published in patent publication US20240300977A1, “INHIBITORS OF DNA-DEPENDENT PROTEIN KINASE AND COMPOSITIONS AND USES THEREOF” (Intellia Therapeutics, Inc., priority 2021, published 2024).
Several values for one entry are separate records, joined by “and”; a condition that tells them apart may be missing. Identical values can stand only once.

How the values were obtained:
[1] = tested on: K562-luc2 cells transduced to express HLA-A*02:01; test: WT1 TCR T cell mediated cytotoxicity, luciferase assay; assay type: cell-based, human; conditions: WT1-T cells (HD1) engineered with inhibitor, K562-HLA-A*02:01, 48h, duplicate values
Protocol: (§1) The ability of WT1-TCR T cells engineered from donors 007HD and 008HD to kill hematological cancer cells expressing natural levels of WT1 and release cytokines was evaluated. TCR KO cells generated as described above but without TRAC/AAV addition were used as a negative, non-killing control. Briefly, T cells were co-cultured with luciferase expressing 697 ALL cells (697-luc2), or K562-luc2 cells transduced to express HLA-A*02:01 (K5692-HLA-A*02:01-luc2) at various effector to target (E:T) ratios (2:1, 1:1, 0.5:1) in TCEM without the addition of IL-2, IL-7, or IL-15. […] After 24h of co-culture, supernatants from the 2:1 E:T ratio group were harvested and used in an MSD U/R-PLEX assay to quantify IL-2, TNFα, IFNγ, and Granzyme B following manufacturers protocol (Mesoscale Discovery). After 48h of co-culture luciferase activity was quantified using the Bright-GLO Luciferase Assay System (Promega) in relative luminescence units (RLU). Percent specific lysis was determined using the formula:
(§2) % Specific Lysis=100−((RLU[Experimental Well]/RLU[Target Only Well])*100)

[2] = tested on: 697 ALL cells (697-luc2); test: as above; assay type: cell-based, human; conditions: WT1-T cells (HD1) engineered with inhibitor, 48h, duplicate values
Protocol: as §1, §2

[3] = tested on: T cells; test: TRAC LNP editing and GFP insertion in activated T cells with DNA-PK inhibitors, flow cytometry; conditions: day 5 post-edit; for Mean % CD3^−/GFP+ Cells (n = 3): GFP positive of the CD3 negative T cells; for Mean % CD3^− Cells (n = 3): TRAC LNP + GFP AAV
[4] = tested on: T cells; test: Fold T cell expansion following TRBC/TRAC editing with WT1-TCR AAV and DNA-PK inhibitors; conditions: Table 4

Compound	Mean % CD3^−/GFP+ Cells (n = 3) ([3]; compound 0.0625 uM) [%]	Mean % CD3^−/GFP+ Cells (n = 3) ([3]; compound 1 uM) [%]	impact of T cell expansion by DNA-PK treatment [4]	also measured
Cc1cc2ncnn2cc1Nc1ncc2c(n1)n(C1CCOCC1)c(=O)n2C [Compound 1, 7-methyl-2-((7-methyl-[1,2,4]triazolo[1,5-a]pyridin-6-yl)amino)-9-(tetrahydro-2H-pyran-4-yl)-7,9-dihydro-8H-purin-8-one]				Percent specific lysis ([1]; E:T 0.5, donor 007HD): 37.10% and 36.80%; Percent specific lysis ([1]; E:T 0.5, donor 008HD): 56.76% and 58.18%; Percent specific lysis ([1]; E:T 1, donor 007HD): 69.32% and 70.95%; Percent specific lysis ([1]; E:T 1, donor 008HD): 83.56% and 79.54%; Percent specific lysis ([1]; E:T 2, donor 007HD): 95.40% and 92.50%; Percent specific lysis ([1]; E:T 2, donor 008HD): 99.29% and 99.66%; Percent specific lysis ([2]; E:T 0.5, donor 007HD): 12.14% and 5.54%; Percent specific lysis ([2]; E:T 0.5, donor 008HD): 43.47% and 44.29%; Percent specific lysis ([2]; E:T 1, donor 007HD): 29.28% and 30.44%; Percent specific lysis ([2]; E:T 1, donor 008HD): 77.92% and 81.24%; Percent specific lysis ([2]; E:T 2, donor 007HD): 65.54% and 61.43%; Percent specific lysis ([2]; E:T 2, donor 008HD): 98.09% and 98.25%
CCn1c(=O)n(C2CCOCC2)c2nc(Nc3cn4ncnc4cc3C)ncc21 [Compound 2, 7-ethyl-2-((7-methyl-[1,2,4]triazolo[1,5-a]pyridin-6-yl)amino)-9-(tetrahydro-2H-pyran-4-yl)-7,9-dihydro-8H-purin-8-one]	47.93	79.40		
Cc1cc2ncnn2cc1Nc1ncc2c(n1)n(C1CC(O)C1)c(=O)n2C (centres unmarked) [Compound 5, 9-(3-hydroxycyclobutyl)-7-methyl-2-((7-methyl-[1,2,4]triazolo[1,5-a]pyridin-6-yl)amino)-7,9-dihydro-8H-purin-8-one]	53.00	78.97		
Cc1cc2ncnn2cc1Nc1cc2c(cn1)n(C)c(=O)n2C1CCOCC1 [Compound 6, 3-methyl-6-((7-methyl-[1,2,4]triazolo[1,5-a]pyridin-6-yl)amino)-1-(tetrahydro-2H-pyran-4-yl)-1,3-dihydro-2H-imidazo[4,5-c]pyridin-2-one]	35.10	74.40	no impact	Mean % CD3^− Cells (n = 3) ([3]; compound 0.0625 uM): 33.87%; Mean % CD3^− Cells (n = 3) ([3]; compound 1 uM): 58.30%
Cc1cc2ncnn2c(C)c1Nc1cc2c(cn1)n(C)c(=O)n2C1CCOCC1 [Compound 7, 6-((5,7-dimethyl-[1,2,4]triazolo[1,5-a]pyridin-6-yl)amino)-3-methyl-1-(tetrahydro-2H-pyran-4-yl)-1,3-dihydro-2H-imidazo[4,5-c]pyridin-2-one]	29.90	43.43	no impact	
Cc1cc2ncnn2c(C)c1Nc1ncc2c(n1)n(C1CCOCC1)c(=O)n2C [Compound 8, 2-((5,7-dimethyl-[1,2,4]triazolo[1,5-a]pyridin-6-yl)amino)-7-methyl-9-(tetrahydro-2H-pyran-4-yl)-7,9-dihydro-8H-purin-8-one]	32.23	70.07	no impact	
Cc1cc2ncnn2cc1Nc1ncc2c(c1C)n(C1CCOCC1)c(=O)n2C [Compound 9, 3,7-dimethyl-6-((7-methyl-[1,2,4]triazolo[1,5-a]pyridin-6-yl)amino)-1-(tetrahydro-2H-pyran-4-yl)-1,3-dihydro-2H-imidazo[4,5-c]pyridin-2-one]	28.27	27.83		
